The values below come from ChEMBL document CHEMBL1156465, “Structures of Mycobacterium tuberculosis 1-deoxy-D-xylulose-5-phosphate reductoisomerase provide new insights into catalysis” (J Biol Chem, 2007).

The nature of this test: Inhibition of Escherichia coli DXR by spectrophotometric method.

One may read the IC50 as the concentration needed to halve the response being measured. A higher IC50 goes with lower potency.

`O=CN(O)CCCP(=O)(O)O` [FOSMIDOMYCIN]: the IC50 turned out to be 30 nM.
